How the values were obtained:
[1] = target: T1, 20S Human Erythrocyte Proteasome (HEP) (Homo sapiens, UniProt P20618+P28074); assay: Chymotrypsin-like activity of 20S Human Erythrocyte Proteasome (HEP), IC50 determination; type: biochemical; details: assay of Example C, inhibition of HEP
T1 construct: 20S Human Erythrocyte Proteasome (HEP), purchased from Immatics Biotechnologies Inc; purchased Immatics Biotechnologies Inc., Tübingen, Germany; host or cells: human erythrocytes (natural source)
In short: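 20S proteasome at 0.2 μg/mL (about 0.6 nM catalytic sites) in 20 mM Tris with 0.04% SDS, preincubated 15 min at 37° C with inhibitor before Suc-LLVY-AMC (100 μM final). AMC fluorescence read in the linear range; triplicates, IC50 from concentration series.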

[2] = target: T2, proteasome in Molt-4 cells (human leukemia) (Homo sapiens, UniProt P20618+P28074); type: cell-based; details: assay of Example E, inhibition of MOLT4; read-out: MOLT4 (EC50)
T2 sequence (P28074 60-263): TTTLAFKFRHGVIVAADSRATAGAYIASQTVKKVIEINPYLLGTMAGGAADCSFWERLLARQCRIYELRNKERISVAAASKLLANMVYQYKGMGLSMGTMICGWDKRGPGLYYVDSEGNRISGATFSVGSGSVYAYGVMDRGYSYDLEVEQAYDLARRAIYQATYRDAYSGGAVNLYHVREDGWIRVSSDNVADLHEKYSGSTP
T2 sequence (P20618 29-241): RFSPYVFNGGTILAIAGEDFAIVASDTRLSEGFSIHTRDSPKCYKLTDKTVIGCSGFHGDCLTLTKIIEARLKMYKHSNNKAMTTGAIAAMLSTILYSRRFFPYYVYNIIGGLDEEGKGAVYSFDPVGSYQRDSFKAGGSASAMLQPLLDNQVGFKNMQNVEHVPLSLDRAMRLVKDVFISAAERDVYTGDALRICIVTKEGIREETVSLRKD
In short: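 Intact Molt-4 cells (6×10^6 cells/mL) in HEPES-buffered saline were preincubated with inhibitor 15 min at 37 °C, then given cell-permeable MeOSuc-FLF-AFC at 25 μM final.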

IC50 [1]	EC50 [2]	Structure (SMILES)
< 10 nM	> 10000 nM	CC(C)C[C@H](NC(=O)[C@H](CCCNC(=N)N[N+](=O)[O-])NC(=O)C(C)c1ccccc1)B(O)O (mixture of isomers) [D.7.4, Boronic acid, [(1R)-1-[[(2S)-5-[[imino(nitroamino)methyl]amino]-2[((2RS)-2-phenylpropanoyl)amino]-1-oxopentyl]amino]-3-methylbutyl]]
< 10 nM	> 10000 nM	CC(C)C[C@H](NC(=O)[C@H](CCCNC(=N)N[N+](=O)[O-])NC(=O)[C@@H](C)c1ccccc1)B(O)O [E.2.16, Boronic acid, [(1R)-1-[[(2S)-5-[[imino(nitroamino)methyl]amino]-2-[((2S)-2-phenylpropanoyl)amino]-1-oxopentyl]amino]-3-methylbutyl]]
< 10 nM	> 10000 nM	CCC(C)C(=O)N[C@@H](CCCNC(=N)N[N+](=O)[O-])C(=O)N[C@@H](CC(C)C)B(O)O (mixture of isomers) [E.2.35, Boronic acid, [(1R)-1-[[(2S)-5-[[immo(nitroamino)methyl]amino]-2-[((RS)-2-methylbutanoyl)amino]-1-oxopentyl]amino]-3-methylbutyl]]
< 10 nM	< 200 nM	CC(C)C[C@H](NC(=O)[C@H](CCCNC(=N)N[N+](=O)[O-])NC(=O)CCCCCCCCCCCNC(=O)OC(C)(C)C)B1O[C@@H]2C[C@@H]3C[C@@H](C3(C)C)[C@]2(C)O1 [D.2.4, 12-[(1,1-dimethylethoxy)carbonylamino] dodecanamide,N-[(1S)-1-[[[(1R)-1-[(3aS,4S,6S,7aR)-hexahydro-3a,5,5-trimethyl-4,6-methano-1,3,2-benzodioxaborol-2-yl]-3-methylbutyl]amino]carbonyl]-4-[[imino(nitroamino)methyl]amino]butyl]-]
< 10 nM	> 10000 nM	CC(C)C[C@H](NC(=O)[C@H](CCCNC(=N)N[N+](=O)[O-])NC(=O)CCN1C(=O)c2ccccc2C1=O)B(O)O [E.1.5]
< 10 nM	< 200 nM	CC(C)C[C@H](NC(=O)[C@H](CCCNC(=N)N[N+](=O)[O-])NC(=O)CCCNC(=O)OCC1c2ccccc2-c2ccccc21)B1O[C@@H]2C[C@@H]3C[C@@H](C3(C)C)[C@]2(C)O1 [D.3.122, [[[(9H-fluoren-9-yl)methoxy]carbonyl]amino]butanamide, N-[(1S)-1-[[[(1R)-1-[(3aS,4S,6S,7aR)-hexahydro-3a,5,5-trimethyl-4,6-methano-1,3,2-benzodioxaborol-2-yl]-3-methylbutyl]amino]carbonyl]-4-[[imino(nitroamino)methyl]amino]butyl]]
< 10 nM	< 200 nM	Cc1cccc(/C=C/C(=O)N[C@@H](CCCNC(=N)N[N+](=O)[O-])C(=O)N[C@@H](CC(C)C)B2O[C@@H]3C[C@@H]4C[C@@H](C4(C)C)[C@]3(C)O2)c1 [D.3.57, 3-(3-Methylphenyl)acrylamide,N-[(1S)-1-[[[(1R)-1-[(3aS,4S,6S,7aR)-hexahydro-3a,5,5-trimethyl-4,6-methano-1,3,2-benzodioxaborol-2-yl]-3-methylbutyl]amino]carbonyl]-4-[[imino(nitroamino)methyl]amino]butyl]]
< 10 nM	2000 to 10000 nM	Cc1ccc(/C=C/C(=O)N[C@@H](CCCNC(=N)N[N+](=O)[O-])C(=O)N[C@@H](CC(C)C)B(O)O)cc1 [E.2.60, Boronic acid, [(1R)-1-[[(2S)-5-[[imino(nitroamino)methyl]amino]-2-[[3-(4-methylphenyl)acryl]amino]-1-oxopentyl]amino]-3-methylbutyl]]
< 10 nM	2000 to 10000 nM	CC(C)C[C@H](NC(=O)[C@H](CCCNC(=N)N[N+](=O)[O-])NC(=O)COc1ccc(Br)cc1)B(O)O [E.2.77, Boronic acid, [(1R)-1-[[(2S)-5-[[imino(nitroamino)methyl]amino]-2-[[2-(4-bromophenoxy)acetyl]amino]-1-oxopentyl]amino]-3-methylbutyl]]
< 10 nM	200 to 2000 nM	CCOC(=O)/C=C/C(=O)N[C@@H](CCCNC(=N)N[N+](=O)[O-])C(=O)N[C@@H](CC(C)C)B1O[C@@H]2C[C@@H]3C[C@@H](C3(C)C)[C@]2(C)O1 [D.1.8, (E)-3-(Ethoxycarbonyl)acrylamide,N-[(1S)-1-[[[(1R)-1-[(3aS,4S,6S,7aR)-hexahydro-3a,5,5-trimethyl-4,6-methano-1,3,2-benzodioxaborol-2-yl]-3-methylbutyl]amino]carbonyl]-4-[[imino(nitroamino)methyl]amino]butyl]]
< 10 nM	2000 to 10000 nM	COc1ccc(CCCC(=O)N[C@@H](CCCNC(=N)N[N+](=O)[O-])C(=O)N[C@@H](CC(C)C)B(O)O)cc1 [E.2.61, Boronic acid, [(1R)-1-[[(2S)-5-[[imino(nitroamino)methyl]amino]-2-[[4-(4-methoxyphenyl)-butanoyl]amino]-1-oxopentyl]amino]-3-methylbutyl]]
< 10 nM	< 200 nM	CCCCCCCOc1ccc(NC(=O)N[C@@H](CCCNC(=N)N[N+](=O)[O-])C(=O)N[C@@H](CC(C)C)B2O[C@@H]3C[C@@H]4C[C@@H](C4(C)C)[C@]3(C)O2)cc1 [D.6.9, N-[(1S)-1-[[[(1R)-1-[(3aS,4S,6S,7aR)-hexahydro-3a,5,5-trimethyl-4,6-methano-1,3,2-benzodioxaborol-2-yl]-3-methylbutyl]amino]carbonyl]-4-[[imino(nitroamino)methyl]amino]butyl]-N′-(4-heptyloxylphenyl) urea]
< 10 nM	< 200 nM	CCCCc1ccc(C(=O)N[C@@H](CNC(=O)c2cnccn2)C(=O)N[C@@H](CC(C)C)B2O[C@@H]3C[C@@H]4C[C@@H](C4(C)C)[C@]3(C)O2)cc1 [D.18, 2-S-(4-Butylbenzoylamino)-3-(2-pyrazinocarbonylamino)-N-[(1S)-1-[[(1R)-1-[(3aS,4S,6S,7aR)-hexahydro-3a,5,5-trimethyl-4,6-methano-1,3,2-benzodioxaborol-2-yl]-3-methylbutyl]amino]carbonyl]]
< 100 nM	2000 to 10000 nM	COCCOCCOCC(=O)N[C@@H](CCCNC(=N)N[N+](=O)[O-])C(=O)N[C@@H](CC(C)C)B1O[C@@H]2C[C@@H]3C[C@@H](C3(C)C)[C@]2(C)O1 [D.1.7]
< 10 nM	> 10000 nM	CC(C)C[C@H](NC(=O)[C@H](CCCNC(=N)N[N+](=O)[O-])NC(=O)CCCC(=O)c1ccsc1)B(O)O [E.2.64, Boronic acid, [(1R)-1-[[(2S)-5-[[imino(nitroamino)methyl]amino]-2-[[5-oxo-5-(thiophen-3-yl)pentanoyl]amino]-1-oxopentyl]amino]-3-methylbutyl]]
< 10 nM	200 to 2000 nM	CC(C)C[C@H](NC(=O)[C@H](CCCNC(=N)N[N+](=O)[O-])NC(=O)c1ccc2ccccc2c1)B(O)O [E.1.4, Boronic acid, [(1R)-1-[[(2S)-5-[[imino(nitroamino)methyl]amino]-2-[(2-naphthoyl)amino]-1-oxopentyl]amino]-3-methylbutyl]]
< 10 nM	> 10000 nM	CCCCN1CCC(CCCC(=O)N[C@@H](CCCNC(=N)N[N+](=O)[O-])C(=O)N[C@@H](CC(C)C)B2O[C@@H]3C[C@@H]4C[C@@H](C4(C)C)[C@]3(C)O2)CC1 [D.2.2, 4-(1-Butyl-piperidin-4-yl)-butanamide,N-[(1S)-1-[[[(1R)-1-[(3aS,4S,6S,7aR)-hexahydro-3a,5,5-trimethyl-4,6-methano-1,3,2-benzodioxaborol-2-yl]-3-methylbutyl]amino]carbonyl]-4-[[imino(nitroamino)methyl]amino]butyl]]
< 10 nM	< 200 nM	CC(C)C[C@H](NC(=O)[C@H](CCCNC(=N)N[N+](=O)[O-])NC(=O)c1ccc(-n2cccc2)cc1)B1O[C@@H]2C[C@@H]3C[C@@H](C3(C)C)[C@]2(C)O1 [D.3.64, 4-Pyrrol-1-yl-benzamide,N-[(1S)-1-[[[(1R)-1-[(3aS,4S,6S,7aR)-hexahydro-3a,5,5-trimethyl-4,6-methano-1,3,2-benzodioxaborol-2-yl]-3-methylbutyl]amino]carbonyl]-4-[[imino(nitroamino)methyl]amino]butyl]]
< 10 nM	< 200 nM	CCCOc1cccc(C(=O)N[C@H](C(=O)N[C@@H](CC(C)C)B(O)O)[C@@H](C)O)c1 [E.3.10, Boronic acid, [(1R)-1-[[(2S,3R)-3-hydroxy-2-[(3-propoxy-benzoyl)amino]-1-oxobutyl]amino]-3-methylbutyl]]
< 10 nM	200 to 2000 nM	CC(C)C[C@H](NC(=O)[C@H](CCCNC(=N)N[N+](=O)[O-])NC(=O)CCc1ccccc1)B1O[C@@H]2C[C@@H]3C[C@@H](C3(C)C)[C@]2(C)O1 [D.3.49, 3-Phenylpropanamide,N-[(1S)-1-[[[(1R)-1-[(3aS,4S,6S,7aR)-hexahydro-3a,5,5-trimethyl-4,6-methano-1,3,2-benzodioxaborol-2-yl]-3-methylbutyl]amino]carbonyl]-4-[[imino(nitroamino)methyl]amino]butyl]]
